Data reported in patent publication US6610675B1 (priority 1980, dated 2003).
Marks after values point to notes of the source that are not given here.

Experiments:
Format in all cases: in vivo, rat
[1] = system: blank cotton pellet granuloma; assay: Blank cotton pellet granuloma assay (intravenous administration); settings: 3 days
Protocol: A further test was undertaken to determine the thymolytic activity of a representative species of the invention as compared to betamethasone 17-valerate. In this test, the drugs were administered intravenously to rats, while using a blank cotton pellet granuloma assay. Male Sprague-Dawley rats, each weighing about 185 grams (166-196 grams), were used. Two cotton pellets, each weighing 30 mg and containing no test compounds, were sterilized and implanted sub-cutaneously into the back of each test animal. This day was considered day 0 of implantation. Test compounds suspended in 0.8% polysorbate 80 were administered intravenously once daily for 3 consecutive days beginning with day 1. On day 5, the animals were sacrificed and the two pellets, with their respective granulomas, were removed, dried overnight in an oven at 50° C. and weighed (dry granuloma weight). The thymi and final body weights were also recorded.
In the foregoing tests, there was determined the deactivation of the representative species of the present soft steroids administered intravenously to rats. […] The test compounds were administered intravenously to rats to check the test compounds also for systemic anti-inflammatory activity as compared to betamethasone 17-valerate. The test compounds were found lower in the inhibition of granulation tissue formation and also in the thymus involution activity than betamethasone 17-valerate. From the results of the tests, it is presumed that the compounds which will not be readily subjected to metabolism (deactivation) have a systemic anti-inflammatory activity, as is the case with betamethasone 17-valerate.

[2] = system: thymus weight in rats; assay: Thymus inhibition testing (subcutaneous administration)
Protocol: Several further studies were undertaken to determine the effects of selected compounds of the invention on thymi weights in rats when the drugs were systemically administered. In each of these studies, male Sprague-Dawley rats were used. […] On the fifth day (48 hours following the last treatment), the animals were sacrificed and the thymi weights were recorded. […] It is evident that the higher the inhibition of thymus activity at a given dose, the more toxic the compound is.

[3] = system: granulation tissue formation caused by implantation of cotton pellets; assay: Granuloma formation test (local cotton pellet granuloma assay); settings: for Body wt. gain / Granulation tissue Dry wt. / Granulation tissue Dry wt. Inhibition / Granulation tissue Wet wt. / Granulation tissue Wet wt. Inhibition / Thymus wt.: Table IV
Protocol: The test compound was dissolved in acetone and aliquots of varying concentrations were injected into cotton pellets. The pellets were dried and then one pellet was implanted beneath the skin of each test rat. Six days later, the animals were sacrificed and the granulation tissue (granuloma) which formed in and around the implanted pellet was removed, dried and weighed. In addition, the thymi and adrenals were removed and weighed.

[4] = Table VII, 1 mg/kg/day s.c., three days
[5] = Table VII, 3 mg/kg/day s.c., three days
[6] = Table VII, 10 mg/kg/day s.c., three days
[7] = Table VII, 30 mg/kg/day s.c., three days
[8] = Table VIII, 10 mg/kg/day s.c., three days
[9] = Table X, betamethasone 17-valerate = 1
[10] = chloromethyl 11β-hydroxy-17α-isopropoxycarbonyloxyandrost-4-en-3-one-17β-carboxylate = 1

CCOC(=O)O[C@]1(C(=O)OCCl)[C@H](C)C[C@H]2[C@@H]3CCC4=CC(=O)C=C[C@]4(C)[C@@]3(F)[C@@H](O)C[C@@]21C [chloromethyl 17α-ethoxycarbonyloxy-9α-fluoro-11β-hydroxy-16α-methylandrosta-1,4-dien-3-one-17β-carboxylate]
Body wt. gain ([1]; 1 mg/kg/day i.v.): 14.1 ± 1.4 g
Dry granuloma wt. ([1]; 1 mg/kg/day i.v.): 50.1 ± 6.9 mg
Dry granuloma wt. Inhibition ([1]; 1 mg/kg/day i.v.): 20.1%
Thymus wt. ([1]; 1 mg/kg/day i.v.): 373 ± 25 mg
Thymus wt. Decrease ([1]; 1 mg/kg/day i.v.): 11.6%
Body wt. gain ([1]; 3 mg/kg/day i.v.): 14.2 ± 1.3 g
Dry granuloma wt. ([1]; 3 mg/kg/day i.v.): 49.3 ± 5.1 mg
Dry granuloma wt. Inhibition ([1]; 3 mg/kg/day i.v.): 21.4%
Thymus wt. ([1]; 3 mg/kg/day i.v.): 338 ± 20 mg
Thymus wt. Decrease ([1]; 3 mg/kg/day i.v.): 19.9%
Body wt. gain ([1]; 10 mg/kg/day i.v.): 0.3 ± 1.7 g
Dry granuloma wt. ([1]; 10 mg/kg/day i.v.): 45.7 ± 4.6 mg
Dry granuloma wt. Inhibition ([1]; 10 mg/kg/day i.v.): 27.1%
Thymus wt. ([1]; 10 mg/kg/day i.v.): 209 ± 31 mg
Thymus wt. Decrease ([1]; 10 mg/kg/day i.v.): 50.5%
Body wt. gain ([1]; 30 mg/kg/day i.v.): -18.5 ± 2.3 g
Dry granuloma wt. ([1]; 30 mg/kg/day i.v.): 32.7 ± 3.0 mg
Dry granuloma wt. Inhibition ([1]; 30 mg/kg/day i.v.): 47.8%
Thymus wt. ([1]; 30 mg/kg/day i.v.): 71 ± 4 mg
Thymus wt. Decrease ([1]; 30 mg/kg/day i.v.): 83.2%
Body weight gain [2, 4]: 13.1 ± 1.0 g
Thymus [2, 4]: 428 ± 20 mg
Thymus Inhibition [2, 4]: 9.1%
Body weight gain [2, 5]: 12.7 ± 1.4 g
Thymus [2, 5]: 412 ± 20 mg
Thymus Inhibition [2, 5]: 12.5%
Body weight gain [2, 6]: 9.7 ± 1.3 g
Thymus [2, 6]: 405 ± 21 mg
Thymus Inhibition [2, 6]: 14.0%
Body weight gain [2, 7]: 4.4 ± 0.7 g
Thymus [2, 7]: 292 ± 15 mg
Thymus Inhibition [2, 7]: 38.0%
Body weight gain [2, 8]: 14.2 ± 1.9 g
Thymus wt. [2, 8]: 533 ± 31 mg
Thymus wt. Inhibition [2, 8]: 3.1%
Relative Potency (TED40) [2, 9]: 0.0058
Relative Potency (TED50) [2, 9]: <0.011
TED40 ([2]; Table X, dose required to achieve 40% inhibition of thymi weight, subcutaneous): 51.5 mg
TED50 ([2]; Table X, dose required to achieve 50% inhibition of thymi weight, subcutaneous): <51.5^a mg
Relative Potency (TED40) ([2]; Table XII, hydrocortisone 17-butyrate = 1): 1/40
TED40 ([2]; Table XII, thymus inhibition effect, subcutaneously): 51.5 mg/kg
Body wt. gain ([3]; 0.3 μg/pellet): 32.4 ± 1.1 g
Granulation tissue Dry wt. ([3]; 0.3 μg/pellet): 57.3 ± 5.0 mg
Granulation tissue Dry wt. Inhibition ([3]; 0.3 μg/pellet): 29.4%
Granulation tissue Wet wt. ([3]; 0.3 μg/pellet): 472 ± 23 mg
Granulation tissue Wet wt. Inhibition ([3]; 0.3 μg/pellet): 16.6%
Thymus wt. ([3]; 0.3 μg/pellet): 492 ± 26 mg
Body wt. gain ([3]; 1 μg/pellet): 37.3 ± 1.5 g
Granulation tissue Dry wt. ([3]; 1 μg/pellet): 36.4 ± 2.4 mg
Granulation tissue Dry wt. Inhibition ([3]; 1 μg/pellet): 55.2%
Granulation tissue Wet wt. ([3]; 1 μg/pellet): 388 ± 31 mg
Granulation tissue Wet wt. Inhibition ([3]; 1 μg/pellet): 31.4%
Thymus wt. ([3]; 1 μg/pellet): 519 ± 22 mg
Body wt. gain ([3]; 3 μg/pellet): 34.3 ± 1.1 g
Granulation tissue Dry wt. ([3]; 3 μg/pellet): 27.4 ± 2.9 mg
Granulation tissue Dry wt. Inhibition ([3]; 3 μg/pellet): 66.3%
Granulation tissue Wet wt. ([3]; 3 μg/pellet): 331 ± 11 mg
Granulation tissue Wet wt. Inhibition ([3]; 3 μg/pellet): 41.5%
Thymus wt. ([3]; 3 μg/pellet): 472 ± 16 mg
Body wt. gain ([3]; 10 μg/pellet): 36.1 ± 1.1 g
Granulation tissue Dry wt. ([3]; 10 μg/pellet): 22.1 ± 3.6 mg
Granulation tissue Dry wt. Inhibition ([3]; 10 μg/pellet): 72.8%
Granulation tissue Wet wt. ([3]; 10 μg/pellet): 313 ± 13 mg
Granulation tissue Wet wt. Inhibition ([3]; 10 μg/pellet): 44.7%
Thymus wt. ([3]; 10 μg/pellet): 521 ± 35 mg
Body wt. gain ([3]; 30 μg/pellet): 31.3 ± 1.4 g
Granulation tissue Dry wt. ([3]; 30 μg/pellet): 20.4 ± 2.4 mg
Granulation tissue Dry wt. Inhibition ([3]; 30 μg/pellet): 74.9%
Granulation tissue Wet wt. ([3]; 30 μg/pellet): 290 ± 10 mg
Granulation tissue Wet wt. Inhibition ([3]; 30 μg/pellet): 48.8%
Thymus wt. ([3]; 30 μg/pellet): 505 ± 26 mg
ED50 ([3]; Table XII, anti-inflammatory effect in cotton pellet granuloma): 1.07 μg/pellet
Relative potency (ED40) [3, 10]: 653
Relative potency (ED60) [3, 10]: 283
ED40 ([3]; dose causing 40% inhibition of granulation tissue weight): 0.47 μg/pellet
ED50 ([3]; dose causing 50% inhibition of granulation tissue weight): 1.07 μg/pellet
ED60 ([3]; dose causing 60% inhibition of granulation tissue weight): 2.44 μg/pellet
